Tests used:
[1] = system: HEK-N/F cells; assay: Protection of cells from oxidative damage induced by t-butylhydroperoxide; assay type: cell-based, human; conditions: 1.5 mM t-butylhydroperoxide 3 hours
Experimental: t-butylhydroperoxide is metabolized into a free radical intermediate as it comes in a cell, so that it causes lipid peroxidation, resulting in cell damage. This phenomenon is similar to that caused by oxidataive stress accumulated in cells and tissues. […] HEK-N/F, an epidermal cell line of a newborn baby, was treated with 1.5 mM of t-butylhydroxyperoxide for 3 hours.

[2] = system: back skin of SKH-1 hairless mouse; assay: Protection of skin tissues from UVB irradiation in hairless mice; assay type: in vivo
Experimental: 5-6 week old female hairless mice (SKH-hr 1) were raised for 14 days at 24±2° C. with 50±10% relative humidity and 12 hour day/night cycle. 30-60 minutes before the experiment, a sample was hyperdermically injected on 5 spots of the mice and the backs of the mice were irradiated by UVB. 5 mice per each group were put in a cage (20×15×5 cm) and UVB irradiation was performed using a UV lamp (HP-15M, 280-400 nm, max. 312 nm; Atto Co., Japan) at 15 cm distance by 15 kJ/m^2. After the completion of UV irradiation for 24 hours, back skin was cut and stored at −70° C. until peroxidation was measured.
UVB irradiation causes serious lipid peroxidation in skin tissues, so measurement of the peroxided lipid content might lead to the measurement of skin damages. Particularly, UVB was irradiated on the back skin of SKH-1 hairless mouse. 48 hours later, the back skin tissues were cut to measure lipid peroxidation by thiobarbituric acid (TBA) method. The back skin of the mouse was put in a 10×50 mM K-P buffer solution for homogenation.
Hydrogen peroxidation was also investigated. The frozen back skin section was put in 0.1 M Tris-HCl buffer solution (pH 7.5) containing 1 mg/ml of glucose and 1 mg/ml diaminobenzidine (DAB), which was cultured at 37° C. for 5-6 hours. After being washed with distilled water, the solution was stained with 2% methyl green for 60 minutes. Nucleus stained blue and DAB peroxidase (brown) were observed under a microscope.

[3] = system: HEK-N/F cells; assay: Prolongation of life span of a cell; assay type: cell-based, human; conditions: 3 μg/ml during culture
Experimental: HEK-N/F cells were obtained from foreskin of a newborn baby after its fibroblasts, another major component of skin, were treated with uridine bromide. Then, the cells were cultured in DMEM medium supplemented with 10 FBS. HEK-N/F cells were diluted consecutively at the ratio of 1:4 during the culture. Before being treated with samples, the cells were grown up to 3 PDL (population doubling level). During the culture, each sample was administered by […]. Medium was replaced every three days by fresh medium supplemented with a culture solution containing the equal concentration of the sample.

[4] = system: HEK-N/F cells; assay: Telomere length / maximum PDL (Southern blot of TRFs); assay type: cell-based, human
Experimental: In the above Example 8, an extract of […] chinensis and active ingredients separated from the same were confirmed to have an effect of prolongation of life span of a cell. Thus, in this example, relation between the effect of prolongation of life span and the length of a telomere was investigated. Particularly, genomic DNA was extracted from each cell of different ages by using a nucleic acid extraction kit (Isoquick Nucleic Acid Extraction kit, ORCA Research Inc.), which was stored at 4° C. after being dissolved in Tris-EDTA solution (10 mM Tris-HCl, 1 mM EDTA, pH 8.0). 2 μl of 10×H buffer solution (TaKaRa), 2 μl of the extracted genomic DNA solution and distilled water were all mixed in a 1.5 ml tube, making final volume 19 μl. Then, 1 μl at of restriction enzyme […]) was added thereto. […] Then, the gel was immersed in 0.25 N HCl, followed by shaking for 15 minutes. The gel was washed twice with distilled water. This gel was dipped into denaturing solution (0.2 N NaOH, 0.6 M NaCl), followed by shaking for 25 minutes at room temperature. And then, the gel was washed three times with distilled water. On a blotting device filled with 6×SSC, nitrocellulose membrane (Optitran BA-S 85, Schleicher & Schuel), 3 mm filter paper, paper towel, glass plate and weight (2 kg) were loaded in that order, followed by blotting overnight. After the blotting was finished, membrane filter was soaked in 3×SSC, and then water was discarded smoothly. The positions of the wells on the membrane were marked. The membrane was placed between filter papers, followed by baking at 80° C. for overnight. […] After being dried, the membrane was covered with wrap and set in a cassette on which X-ray film (Scientific Imaging Film, Kodak) and intensifying screen were attached. Autoradiography was performed at -80° C. for overnight. Based on the developed film and the location of the membrane, the positions of the wells were marked by a magic pen. The density peak of TRFs was detected by a laser densitometer (UltroScan XL, Pharmacia) and its mobility was calculated.

[5] = system: HEK-N/F cells; assay: Cell protection from UV irradiation (DNA damage, ethidium homodimer fluorescence); assay type: cell-based, human; conditions: 35 mJ/cm^2 UVB, Et2 fluorescence (DNA damage)
Experimental: UV irradiation induces DNA damage and DNA-protein connection by increasing active oxygen in cells. When HEK-N/F cells were irradiated by 35 mJ/cm^2 of UVB, DNA chains in nucleus were cut. After uniting the broken chains to ethidium homodimer (Et2), a DNA chain intercalating fluorescent dye, extent of fluorescence was measured to quantify the amount of DNA damage. Particularly, HEK-N/F cells were cultured on serum-free KGM medium (Clonetics), which were inoculated into wells of a 24-well plate by 0.5−4×10^4 cells/2 cm^2. Then, the cells were cultured for 18 hours, after which a sample was treated thereto for 2 hours. […] The cells exposed on UV were further cultured for 1-7 hours, and then, […] ethidium homodimer (Et2, Millipore) was added. 30 minutes later, fluorescence was measured with Millipore microplate fluorometer Cytofluor 2350 (excitation: 485 nm, emission: 645 nm).

Structure (SMILES): Oc1cc(O)cc(/C=C/c2ccc(O)c(O)c2)c1 [Chemical Formula 5, piceatannol]
- Cell survival rate (%) [1]: 84.7±6.9%
- TBARS (pmol/mg protein) ([1]; compound 50.0 µg/ml): 520.2 ± 60.7 pmol/mg protein
- TBARS (nmol/mg protein) ([2]; treating amount 10 mg/kg + UVB irradiation): 0.16 ± 0.08 nmol/mg protein
- TBARS (nmol/mg protein) ([2]; treating amount 30 mg/kg + UVB irradiation): 0.07 ± 0.03 nmol/mg protein
- average life span of a cell [3]: 76 days
- life span, times as long as that of a control [3]: 2.1 times
- telomere shortening speed delayed, comparing to control [4]: 2.1 times
- maximum PDL ([4]; control 14.1): 29.9
- fluorescence lower than that of a control [5]: 66.7%

From patent publication US7763287B2, “Extract of Cercis chinensis having anti-oxidant activity and anti-aging activity, and cosmetical composition containing the extract for anti-oxidation, skin-aging protection and wrinkle improvement” (Hankook Pharm. Co., Inc., priority 2002, dated 2010)
